Data: patent US8597692B2, “Cocoa extract and use thereof” (Barry Callebaut AG, priority 2007, dated 2013)

Legend:
[1] = test system: Male Wistar-Unilever rats; test: Open field test of locomotor and behavioral activity (Example 1); type: in vivo, rat; conditions: 3 min, 5 hours after the 13th treatment; CPE 24 and 48 mg/kg, Imipramine 15 mg/kg PO
Procedure: (§1) An open field (40 cm high×60 cm in diameter) divided into 9 areas (8 equal squares and the central zone) is used for the measurement of locomotor and behavioral activity, to exclude the possibility that immobility is due to locomotion problems. The experimental devices for the forced swimming test are plexiglas cylinders (50 cm high×20 cm in diameter) filled to 30 cm depth with water at 25° C. In the slightly lit test room, a CCD-TV camera allows the rats to be observed and filmed on VHS-videotapes from a neighbouring room. During the experimental period, rats are weighed 3 times per week, i.e. Monday, Wednesday and Friday. Each rat is individually placed for 3 min in the center of the open field device 5 hours after the 13th treatment and 15 min before the forced swim test pretest session. This test is performed in order to test the effects of the products used on the locomotor activity of the animals and confirm that the results in the forced swim relate to the animal's mental state as opposed to locomotor ability. Immobility is defined as absence of swimming activity other than that necessary to keep the rat's head above the water. Imipramine (15 mg/kg BW, PO) is used as the antidepressant reference substance.

[2] = test system: Male Wistar-Unilever rats; test: Forced swimming test in rat model for depression (Example 1); type: in vivo
Procedure: Male Wistar-Unilever rats (HsdCpb:WU) (Harlan, Horst, The Netherlands), weighing 200 to 225 g are weighed and randomly divided into 4 groups (n=12). Cocoa extract according to the invention comprising by weight 54-58% polyphenols, 8-9% theobromine, and 0.5-1.5% phenylethylamine is dissolved in spring water and stirred until homogenization just before its administration at the doses of 24 and 48 mg/kg BW, PO, in a volume of administration of 10 ml/kg BW.
The test product is orally administered for 14 days twice a day (2×12 and […]) in the morning and in the afternoon Imipramine (Sigma, France) was stored at room temperature and prepared fresh before testing. It is dissolved in spring water and stirred until homogenization just before its administration at a dose of 15 mg/kg BW, PO, in a volume of administration of 10 ml/kg. Imipramine is administered once a day.
as §1
The test product and the vehicle are orally administered for 14 days, twice a day in the morning and in the afternoon. On D13, the products are administered just after the pretest session which lasted 15 minutes. On D14 the products are administered five hours and one hour prior to the forced swimming test. The test session lasts 5 minutes. The first five minutes of the initial 15-min swimming pretest and the 5-min swimming test session are videotaped for scoring the duration of immobility. Imipramine (15 mg/kg BW, PO) is used as the antidepressant reference substance.

[3] = Body weight during the experimental period (Example 1); type: in vivo, rat; conditions: 14-day treatment; CPE 24 and 48 mg/kg, Imipramine 15 mg/kg PO; IMI difference from D5 to D14
Procedure: as §1

## CN(C)CCCN1c2ccccc2CCc2ccccc21 [IMI, Imipramine]
[1]
  overt behavioral changes or motor dysfunction in the open field test: Neither administration of Imipramine nor CPE showed significant differences
[2]; 5-min test session, D14, 15 mg/kg BW PO once a day, n = 12
  duration of immobility, Test (Mean ± SEM): 10.33 ± 1.79
[2]; CPE 24 and 48 mg/kg, Imipramine 15 mg/kg PO
  change of duration of immobility from pretest to test session (paired t-test): significantly decreased
[2]; pretest session after a 13 day-period of treatment, Imipramine 15 mg/kg PO
  duration of immobility in comparison with vehicle, pretest session (Dunnett's t test): significantly reduced
[2]; pretest session, first 5 min, D13, 15 mg/kg BW PO once a day, n = 12
  duration of immobility, Pretest (Mean ± SEM): 21.25 ± 3.70
[2]; test session D14, CPE 24 and 48 mg/kg, Imipramine 15 mg/kg PO
  durations of immobility in comparison with vehicle, test session (Dunnett's t test): significantly reduced
[3]
  body weight compared with the other groups: significantly lower
